Here are results for 80 molecules from paper PMC12040169 (PLOS Biology, 2025).

This data set in a line: in vitro. To be noted: human, hela cells.

Each structure is given as a SMILES string.

As to `Cc1cc(C2CCCCCN2C(=O)c2ccccc2F)on1` (centres unmarked) [CBK284842], the viability (usually a read-out of living cells in per cent, often relative to untreated cells) at 28.5 h, 10 µM (% viability) stood at 94.5%.
The same measure, in the same setting: in the case of `O=C1CCCc2nccc(-c3ccc(Cl)cc3)c21` [CBK287870] it was 82.9%; in that of `N[C@H]1CC[C@H](N(CCc2ccccc2)C(=O)N[C@@H]2C[C@H]2c2ccccc2)CC1` [CBK000474C], 110%; in that of `O=C(O)c1nccnc1C(=O)N1CCN(c2ccc(Cl)cc2)CC1` [CBK286826], 89.4%.
On the same count and under the same terms, the result for `O=C(Nc1ccc(S(=O)(=O)NCc2ccncc2)cc1)c1ccccc1Cl` [CBK269664] reads 91.5%.
On the same count and under the same terms, the result for `O=C(O)c1ccc(NC(=O)c2nccnc2C(=O)O)cc1` [CBK260916] reads 97.7%.
For the molecule `Cc1nn(-c2cccc(Br)c2)c(C)c1[C@@H]1C=C[C@@H](NS(C)(=O)=O)C1` [CBK288806], the viability at 28.5 h, 10 µM (% viability) is 86.3%.
Same read-out and setting: the result for `CC1(CNC(=O)c2cc(C3CC3)nc3ccccc23)COC1` [CBK281752] reads 90%; that for `CCN(CC)C(=O)CN1CCC(c2ccc(OC)cc2)CC1` [CBK283559], 102%; that for `O=C(O)CCNc1cc2ccccc2cc1C(=O)O` [CBK286640], 80.7%.
Still for that read-out and setting: the result for `Cc1cc2nc(NC(=N)N)nc(C)c2cc1C` [CBK262269] reads 83.8%; that for `C[C@@H]1CN(C(=O)c2cc3c(C(=O)OC(C)(C)C)ncn3c3ccc(Cl)cc23)C[C@H](C)N1` [CBK016744], 115%; that for `OCCNc1ncnc2c1cnn2-c1ccccc1` [CBK077741C], 81.3%.
The same measure, in the same setting: the result for `O=C(Nc1ccc2ncccc2c1)c1cccnc1` [CBK159820] reads 94.1%; that for `COc1cc(OC)c2c(c1)OCC1CON(C)C21` (centres unmarked) [CBK011446], 95.6%; that for `CCc1nn(CC(=O)NCC2CC2)c(=O)c2cc3ccsc3n12` [CBK284129], 87.8%.
In the case of `Cc1cc(NS(=O)(=O)c2ccc(Oc3ccccc3)cc2)n(C)n1` [CBK067249], the viability at 28.5 h, 10 µM (% viability) amounted to 96.2%.
The same measure, in the same setting: the result for `CN(C)CCN1C(=O)C(O)=C(C(=O)c2ccc(S(=O)(=O)N3CCOCC3)cc2)C1c1ccc(F)cc1` (centres unmarked) [CBK264683] reads 104%.
Still for that read-out and setting: the result for `CN1CCC2(CCC1=O)CC(N)c1ccccc1O2` (centres unmarked) [CBK284456] reads 103%; that for `CCOCC(=O)N(C)C1CCN(c2ncnc3ccccc23)CC1` [CBK306247], 89.1%; that for `Cc1c(CNCCN2CCN(C)CC2c2ccccc2)cnn1C` (centres unmarked) [CBK304056], 98.8%.
Still for that read-out and setting: in the case of `COc1ccccc1N1CCN(CCNC(=O)Nc2cccc(C)c2C)CC1` [CBK266839] it was 90.2%.
Regarding `COc1cc(CNCc2ccc(F)cc2)cc(Cl)c1OCC(N)=O` [CBK270256C], under “% viability”, the viability at 28.5 h, 10 µM worked out at 89%.
Still for that read-out and setting: the result for `CCOC(=O)c1c(NC(=S)NC(=O)c2cccc(Cl)c2)sc2c1CCCC2` [CBK264045] reads 88.2%; that for `CC1(C)CC(NC(=O)Cn2ccc3ccccc32)CCO1` (centres unmarked) [CBK304347], 98%; that for `O=C1Nc2ccc(-c3ccsc3)cc2C(=O)N2CC[C@H](NC(=O)N3CCOCC3)[C@@H]12` [CBK289338], 109%.
Turning to `CSc1ccc(CNC(=O)c2ccc(Cl)cc2)s1` [CBK057705], under “% viability”, the viability at 28.5 h, 10 µM amounted to 89.4%.
Take `O=C(O)c1cc(NC(=O)c2ccc3c(c2)C(=O)N(Cc2ccco2)C3=O)cc(C(=O)O)c1` [CBK267374]: the viability at 28.5 h, 10 µM is 101%.
As for `O=C1CN(Cc2cnn(-c3ccc(F)cc3)c2)CCN1C1CCCC1` [CBK281926], for the setting “% viability”, the viability at 28.5 h, 10 µM was determined as 86.5%.
The same measure, in the same setting: in the case of `Oc1cccc(/C=N/c2nnn[nH]2)c1` [CBK260977] it was 91.7%; in that of `Clc1ccc(Nc2nc(-c3ccoc3)cn3ccnc23)cc1` [CBK066497], 102%.
On to `CC(C)Nc1nccnc1Sc1nc[nH]n1` [CBK115205], for which the viability at 28.5 h, 10 µM (% viability) is 97.5%.
As to `CC1CCCN(Cc2nc3c([nH]2)c(=O)n(C)c(=O)n3C)C1` (centres unmarked) [CBK306054], the viability at 28.5 h, 10 µM (% viability) was 88.7%.
Same read-out and setting: the result for `O=C(COc1ccccc1)NC1C(=O)N2C(C(=O)O)=C(Cl)CSC12` (centres unmarked) [CBK266903] reads 92.7%; that for `O=C(NCCCn1ccnc1)c1ncoc1-c1cccs1` [CBK282404], 92.7%.
Same read-out and setting: in the case of `O=C(CCCN1C(=O)/C(=C\c2cccs2)SC1=S)Nc1cc(Cl)ccc1O` [CBK263673] it was 99.5%; in that of `COc1c(C)cccc1C(=O)N1CCCC(c2ccc(Nc3nc(C)cc(C)n3)cn2)C1` (centres unmarked) [CBK285989], 98.5%; in that of `COC(=O)c1ccccc1NC(=O)CSc1nnc(-c2ccncc2)[nH]1` [CBK266324], 96.4%.
The same measure, in the same setting: the result for `C=CCc1cc(C)cc(C)c1OCCN1CCN(CC)CC1` [CBK267392G] reads 93.7%.
As to `O=C(NCC1CCCO1)c1ccc(NC(=O)C2CC=CCC2C(=O)O)cc1` (centres unmarked) [CBK266335], the viability at 28.5 h, 10 µM (% viability) is 95%.
On to `COc1cc(NC(=O)C(C)Oc2cccc(Cl)c2)c(C(=O)O)cc1OC` (centres unmarked) [CBK268470], for which the viability at 28.5 h, 10 µM (% viability) came out at 92.4%.
Turning to `O=C1c2ccccc2C(=O)N1CN(Cc1ccc2c(c1)OCO2)CN1C(=O)c2ccccc2C1=O` [CBK265197], the viability at 28.5 h, 10 µM (% viability) amounted to 107%.
Still for that read-out and setting: in the case of `CCc1noc(C(C)N2CCN(CC(=O)NCc3ccco3)CC2)n1` (centres unmarked) [CBK305368] it was 116%.
On the same count and under the same terms, the result for `CC(C)C[C@@H](C(=O)N1CCC(C(=O)O)CC1)n1c(=O)[nH]c2ccccc2c1=O` [CBK286762] reads 88.5%.
On the same count and under the same terms, in the case of `NS(=O)(=O)c1ccc(C(=O)NCCc2c[nH]c3ccc(Cl)cc23)cc1` [CBK159780] it was 95.2%.
With `COc1cccc(CCC(=O)n2ccn(-c3ccc(N(C)C)cc3)c2=O)c1` [CBK106609], the viability at 28.5 h, 10 µM (% viability) was found to be 99%.
On the same count and under the same terms, the result for `CC1CC1C(=O)N(C)C1CCN(c2ncnc3ccccc23)CC1` (centres unmarked) [CBK304972] reads 83.3%; that for `CCC(CC)C(=O)N1CCC(CNc2cnc(-c3ccc(S(C)(=O)=O)cc3)cn2)CC1` [CBK172021], 99.5%.
As for `CC(=S)NCC1CC(c2ccc(N3CC[S+]([O-])CC3)c(F)c2)=NO1` (centres unmarked) [CBK017992], the viability at 28.5 h, 10 µM (% viability) turned out to be 110%.
The same measure, in the same setting: the result for `Cc1c(Br)c(C(F)(F)F)nn1CC(=O)Nc1cc(C(F)(F)F)ccc1Cl` [CBK087518] reads 92.5%; that for `COc1ccc(S(=O)(=O)N2CCC(C(=O)N3CCN(Cc4ccc5c(c4)OCO5)CC3)CC2)cc1Cl` [CBK267614], 86%; that for `COc1cc(F)cc(OC2CCNCC2)c1NC(=O)C1CCC1` [CBK045912T], 92.3%.
The same measure, in the same setting: in the case of `CN1CCN(C(=O)CN(Cc2ccc(Cl)cc2)S(=O)(=O)c2ccc(Br)cc2)CC1` [CBK265771] it was 113%; in that of `COc1cncc(-c2cnc3[nH]c(=O)n([C@H](CO)C(C)C)c3n2)c1` [CBK064977], 107%; in that of `COc1ccc(C)cc1-n1ccc(C(=O)NC2(C#N)CCSC2)n1` (centres unmarked) [CBK304943], 93.1%.
With `O=C(O)c1ccc(N2CCN(CCO)CC2)c([N+](=O)[O-])c1` [CBK264911C], the viability at 28.5 h, 10 µM (% viability) was 100%.
Same read-out and setting: the result for `COc1ccc(-c2cn(-c3cc(Cl)ccc3C)nn2)cc1` [CBK113023] reads 58.6%; that for `CNS(=O)(=O)c1ccc2c3c(cccc13)C(=O)N2` [CBK287275], 89.7%.
As for `O=c1[nH]c(=O)n(Cc2ccccc2)c2nc[nH]c12` [CBK291140], where the note is “% viability”, the viability at 28.5 h, 10 µM turned out to be 108%.
Turning to `Cc1c(C)n(Cc2ccco2)c2ncnc(NCC(=O)O)c12` [CBK307563], the viability at 28.5 h, 10 µM (% viability) was 101%.
On the same count and under the same terms, the result for `Cc1c(C(=O)N(C)C2CCNCC2)nnn1-c1ccc2ncccc2c1` [CBK306500C] reads 84.8%.
In the case of `N#Cc1ccccc1Cn1cc(C(=O)COc2ccccc2)c2ccccc21` [CBK268532], the viability at 28.5 h, 10 µM (% viability) was 90.5%.
The same measure, in the same setting: the result for `O=S(=O)(c1ccc(Cl)cc1)N1CCN(c2ccccc2)CC1` [CBK067987] reads 100%; that for `O=C(NCCCN1CCOCC1)/C(=N\O)c1ccccn1` [CBK288366], 94.1%; that for `CC(C)(CSc1ncccn1)NS(=O)(=O)c1ccccc1` [CBK268282], 88.3%.
Take `CCOc1cc(/C=C2\SC(=S)N(Cc3cccnc3)C2=O)ccc1OCc1cccc(F)c1` [CBK264615]: where the note is “% viability”, the viability at 28.5 h, 10 µM worked out at 112%.
Regarding `CCN1CCCC1CNC(=O)c1ccc(C)nc1NCCCn1ccnc1` (centres unmarked) [CBK076382], the viability at 28.5 h, 10 µM (% viability) came to 90.7%.
The same measure, in the same setting: in the case of `O=C(CN1CCNCC1)Nc1ccc(Oc2ccccc2)cc1` [CBK267191C] it was 102%; in that of `NC(=O)COc1ccc(CNC(=O)CN2CCc3sccc3C2)cc1` [CBK306111], 99.4%.
On the same count and under the same terms, in the case of `CC(=O)c1ccc(-c2nc(-c3ccoc3)cnc2N)cc1` [CBK064058] it was 97.3%; in that of `Cc1nc(CN2CCCC(NCc3cccc(C(N)=O)c3)C2)no1` (centres unmarked) [CBK304929], 94.2%.
For `Cc1ccc2c(c1)oc(=O)n2CCNC(=O)c1cccs1` [CBK284472], the viability at 28.5 h, 10 µM (% viability) is 99.9%.
Still for that read-out and setting: the result for `CN1CCN(CCC(=O)N/N=C/c2ccsc2)CC1` [CBK261505] reads 94.8%; that for `N#CCCN(C(=O)NCCOc1ccccc1)C1CCCCC1` [CBK156374], 94.9%.
Regarding `O=C(Nc1ccccc1C(F)(F)F)N1CCC2(CC1)OCCO2` [CBK043655], where the note is “% viability, bulk resorufin, single well”, the viability at 28.5 h, 10 µM came to 94.1%.
Consider `COc1ccc(N2CCN(C(=O)CCC(=O)c3cccs3)CC2)cc1` [CBK091413], for which the viability at 28.5 h, 10 µM (% viability) was 94.3%.
On the same count and under the same terms, the result for `NC(=O)C1(Cc2cccc(-c3cccs3)c2)CCN(C(=O)COc2ccccc2)CC1` [CBK285741] reads 103%; that for `Cc1c(NC(=S)NC(=O)COc2ccc(Cl)cc2)cccc1C(=O)O` [CBK265070], 103%; that for `COc1cccc(COc2cncc(N3CCNCC3)n2)c1OC` [CBK200003], 98.6%.
Still for that read-out and setting: in the case of `COc1ccc(Nc2nc(-c3ccc(Cl)cc3)cn3ccnc23)cn1` [CBK066254] it was 113%.
